The source of these data is US9840513B2 (AbbVie S.à.r.l., priority 2015, dated 2017).

The assay addresses T1, F508delCFTR cell surface expression in CFBE41o-F508delCFTR-HRP cells (Homo sapiens, UniProt P13569, DEL508-508).
T1 construct: fused on or other part: Horseradish peroxidase (HRP) reporter inserted in the fourth exofacial (extracellular) loop of CFTR; expression is doxycycline-inducible
The assay is described as follows: Cell Surface Expression-Horse Radish Peroxidase (CSE-HRP) Assay. The class given is cell-based. Conditions: for EC50: CFBE41o-F508delCFTR-HRP cells, 18-24 hours at 33° C., 8-point curve, highest concentration 20 μM; for Maximum % activity (%): maximum at any tested concentration, normalized to on-plate positive control (3 μM). An outline of the steps:
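Correctors incubated 18-24 h at 33 °C on doxycycline-induced (0.5 μg/mL, 72 h) CFBE41o-F508delCFTR-HRP cells, 3-fold series from 20 μM. After DPBS washes, luminol luminescence read; activity expressed relative to DMSO and a 3 μM positive control, EC50 fitted from triplicate plates.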

Broadly, the EC50 is the concentration at which the effect is half-maximal. Read a low EC50 as greater potency.

T1 sequence (P13569 with tags, fused parts or gaps DEL508-508 limits assumed): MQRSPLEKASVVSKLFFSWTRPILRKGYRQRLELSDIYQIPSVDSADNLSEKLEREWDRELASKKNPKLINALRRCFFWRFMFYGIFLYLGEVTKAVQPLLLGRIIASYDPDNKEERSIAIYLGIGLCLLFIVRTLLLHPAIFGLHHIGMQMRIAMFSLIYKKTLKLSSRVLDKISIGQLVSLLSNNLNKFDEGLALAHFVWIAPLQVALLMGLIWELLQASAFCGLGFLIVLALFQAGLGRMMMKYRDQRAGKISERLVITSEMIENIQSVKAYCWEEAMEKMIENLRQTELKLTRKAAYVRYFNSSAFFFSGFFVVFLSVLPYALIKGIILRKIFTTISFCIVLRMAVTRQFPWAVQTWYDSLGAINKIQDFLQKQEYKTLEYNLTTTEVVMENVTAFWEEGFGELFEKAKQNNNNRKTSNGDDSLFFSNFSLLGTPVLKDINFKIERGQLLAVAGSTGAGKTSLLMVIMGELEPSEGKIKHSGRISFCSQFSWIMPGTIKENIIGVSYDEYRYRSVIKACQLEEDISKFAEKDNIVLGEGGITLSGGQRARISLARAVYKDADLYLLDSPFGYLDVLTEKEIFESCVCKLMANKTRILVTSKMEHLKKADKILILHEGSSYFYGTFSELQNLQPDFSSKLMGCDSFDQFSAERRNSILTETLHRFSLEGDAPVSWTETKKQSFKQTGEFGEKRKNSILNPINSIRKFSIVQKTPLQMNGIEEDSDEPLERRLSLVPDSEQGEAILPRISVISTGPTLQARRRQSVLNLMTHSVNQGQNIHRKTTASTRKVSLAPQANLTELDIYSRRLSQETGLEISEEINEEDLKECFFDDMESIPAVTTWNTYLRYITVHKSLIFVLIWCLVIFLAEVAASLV
T1 sequence (P13569 919-1480 limits assumed, stated change not applied): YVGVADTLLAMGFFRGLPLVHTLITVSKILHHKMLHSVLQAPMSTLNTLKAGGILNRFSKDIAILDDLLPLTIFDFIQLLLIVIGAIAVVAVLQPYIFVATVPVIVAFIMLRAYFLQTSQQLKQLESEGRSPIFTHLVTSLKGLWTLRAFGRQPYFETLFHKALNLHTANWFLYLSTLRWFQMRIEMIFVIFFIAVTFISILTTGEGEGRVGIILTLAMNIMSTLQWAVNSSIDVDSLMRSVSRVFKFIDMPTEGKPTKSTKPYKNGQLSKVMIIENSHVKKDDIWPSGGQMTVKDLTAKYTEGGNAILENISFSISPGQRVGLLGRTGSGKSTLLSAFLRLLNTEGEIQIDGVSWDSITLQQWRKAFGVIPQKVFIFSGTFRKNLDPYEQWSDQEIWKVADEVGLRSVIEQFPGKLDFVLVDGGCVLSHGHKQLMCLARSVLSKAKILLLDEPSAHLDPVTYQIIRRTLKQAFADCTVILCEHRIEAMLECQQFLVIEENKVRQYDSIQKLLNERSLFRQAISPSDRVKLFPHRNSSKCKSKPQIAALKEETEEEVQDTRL

Regarding `C[C@]1(C(=O)Nc2cc(Br)cn(-c3ccc(C(=O)O)cc3)c2=O)COc2cc3c(cc21)OC(F)(F)O3` [Example 97, 4-[5-bromo-3-{[(7R)-2,2-difluoro-7-methyl-6,7-dihydro-2H-furo[2,3-f][1,3]benzodioxole-7-carbonyl]amino}-2-oxopyridin-1(2H)-yl]benzoic acid], the midpoint of the response, the EC50, lay at 0.48 µM and the “Maximum % activity (%)” value is 148%.

`CC1(C(=O)Nc2cccc(F)n2)COc2cc3c(cc21)OC(F)(F)O3` (stereo not shown) [Example 67, 2,2-difluoro-N-(6-fluoropyridin-2-yl)-7-methyl-6,7-dihydro-2H-furo[2,3-f][1,3]benzodioxole-7-carboxamide]: the EC50 came to 8.39 µM and the “Maximum % activity (%)” value was 70%.

As to `C[C@]1(C(=O)Nc2cc(-c3ccccc3)cn(C[C@@H](O)CO)c2=O)COc2cc3c(cc21)OC(F)(F)O3` [Example 100, (7R)—N-{1-[(2R)-2,3-dihydroxypropyl]-2-oxo-5-phenyl-1,2-dihydropyridin-3-yl}-2,2-difluoro-7-methyl-6,7-dihydro-2H-furo[2,3-f][1,3]benzodioxole-7-carboxamide], a half-maximal response (EC50) required 0.45 µM and the “Maximum % activity (%)” value amounted to 85%.

On to `COc1ccc2c(c1)O[C@@H](C1CCC(C(=O)O)CC1)C[C@H]2NC(=O)[C@]1(C)COc2cc3c(cc21)OC(F)(F)O3` (stereo partly drawn) [Example 292, 4-[(2R,4R)-4-{[(7S)-2,2-difluoro-7-methyl-6,7-dihydro-2H-furo[2,3-f][1,3]benzodioxole-7-carbonyl]amino}-7-methoxy-3,4-dihydro-2H-1-benzopyran-2-yl]cyclohexane-1-carboxylic acid], for which a half-maximal effect (EC50) was put at 7.54 µM and the “Maximum % activity (%)” value worked out at 99%.

Consider `Cc1ccc(NC(=O)C2(C)COc3cc4c(cc32)OC(F)(F)O4)nc1-c1cccc(C(=O)OC(C)(C)C)c1` (stereo not shown) [Example 1, tert-butyl 3-{6-[(2,2-difluoro-7-methyl-6,7-dihydro-2H-furo[2,3-f][1,3]benzodioxole-7-carbonyl)amino]-3-methylpyridin-2-yl}benzoate], for which the EC50 is 2.05 µM and the “Maximum % activity (%)” value came to 100%.

`COc1ccc2c(c1)O[C@H](C1CCC(C(=O)O)CC1)C[C@@H]2NC(=O)[C@]1(C)COc2cc3c(cc21)OC(F)(F)O3` (stereo partly drawn) [Example 293, 4-[(2S,4S)-4-{[(7S)-2,2-difluoro-7-methyl-6,7-dihydro-2H-furo[2,3-f][1,3]benzodioxole-7-carbonyl]amino}-7-methoxy-3,4-dihydro-2H-1-benzopyran-2-yl]cyclohexane-1-carboxylic acid]: the EC50 was determined as 1.63 µM and the “Maximum % activity (%)” value was found to be 115%.

With `COc1ccc2c(c1)O[C@@H](c1ccc(C(=O)NCC(N)=O)cn1)C[C@H]2NC(=O)[C@@]1(C)COc2cc3c(cc21)OC(F)(F)O3` [Example 227, N-(2-amino-2-oxoethyl)-6-[(2R,4R)-4-{[(7R)-2,2-difluoro-7-methyl-6,7-dihydro-2H-furo[2,3-f][1,3]benzodioxole-7-carbonyl]amino}-7-methoxy-3,4-dihydro-2H-1-benzopyran-2-yl]pyridine-3-carboxamide], the EC50 is 0.07 µM and the “Maximum % activity (%)” value is 113%.

In the case of “4-[(2R,4S,6S)-4-{[(7R)-2,2-difluoro-7-methyl-6,7-dihydro-2H-furo[2,3-f][1,3]benzodioxole-7-carbonyl]amino}-6-phenyloxan-2-yl]benzoic acid and 4-[(2S,4R,6R)-4-{[(7R)-2,2-difluoro-7-methyl-6,7-dihydro-2H-furo[2,3-f][1,3]benzodioxole-7-carbonyl]amino}-6-phenyloxan-2-yl]benzoic acid [Example 34]”, it took 0.48 µM to reach a half-maximal effect (EC50) and the “Maximum % activity (%)” value was 109%.
